Data reported in patent US20240301322A1, “FUNCTIONALIZED BIODEGRADABLE SURFACTANTS AND METHODS USE” (Locus Solutions IPCo, LLC, priority 2023, published 2024).

Experiments:
[1] = Surface tension at 1000 ppm; assay type: physicochemical
Method: (§1) Table 8 summarizes surface tension reduction at 1000 ppm and log reduction of P. aeruginosa at 0 and 10 min. (200 ppm) for two C12 cationic amino alcohol surfactants according to embodiments of the subject invention, LRO (R) and LKO (K), where LRO was produced through the coupling of a lauroyl chloride substrate and arginine ethyl ester and LKO was produced through the coupling of a lauroyl chloride substrate and lysine ethyl ester.
(§2) Table 9 summarizes surface tension reduction at 1000 ppm and log reduction of S. aureus and S. enterica at 0 and 10 min. (200 ppm) for four categories of cationic amino alcohol surfactants according to embodiments of the subject invention.

[2] = test system: Staphylococcus aureus (Gram-positive); test: Microbial kill study, log reduction of Staphylococcus aureus; assay type: cell-based
Method: (§3) Studies were conducted to determine the antimicrobial capabilities of cationic arginine derivatized surfactants produced according to embodiments of the subject invention.
(§4) The test organisms were a mixture of Gram-negative and Gram-positive organisms, which served to validate the breadth of the spectrum of control and the utility of the technology for common pathogens of public health concern: Pseudomonas aeruginosa (Gram-negative), Staphylococcus aureus (Gram-positive) and Salmonella entericus (Gram-negative).
(§5) Test bacteria were grown at 32° C. for 24-48 hours in tryptic soy broth, then plated at a starting concentration of 10^7. PBS was used for dilution to achieve the desired cell concentration.
(§6) A stock solution of each antimicrobial treatment was created in water, which was then used to create each desired dilution for treatment: 25, 50, 200, 400, 500, 750, 1,000, 1,500, 2,000 and 4,000 ppm, in an appropriate volume of buffer. Buffers included 100 mM of citric acid, ammonium HCL, PBS or sodium bicarbonate.
(§7) The created cell dilution of 10^7 CFU/mL was mixed with either 100 uL to 900 uL of antimicrobial at the appropriate PPM, or 1-9 mL of antimicrobial at the appropriate PPM. The final concentration of the organism was […] once mixed with the antimicrobial.
(§8) The moment the organism was added to the antimicrobial, the timer was started for the desired time period (0, 2, 5, 6 or 10 min). At the end of the timer, the antimicrobial was neutralized, and dilutions were then plated onto TSA plates and incubated for 24-48 hours at 32° C.
(§9) The negative control comprised 0.1 mL from the organism stock plated onto a TSA plate. For the positive control a serial dilution was set up with a starting concentration of 400 PPM quaternary ammonium compound (QAC) and organism. Dilutions were plated at 102, 103 and 104 CFU/mL.
(§10) After 24 to 48 hours of incubation, plates were removed from the incubator and colony numbers were counted.
(§11) The below scale is commonly used in determining a compound's efficacy, where a greater than or equal to 6-fold logarithmic (≥6 log) reduction in less than 10 minutes is needed for disinfection.
as §2
(§12) The surfactants were produced through the coupling of octanoyl chloride (C8); decanoyl chloride (C10); lauroyl chloride (C12); myristyroyl chloride (C14); palmitoyl chloride (C16); or a linear sophorolipid (SLP), with: arginine ethyl ester (R), histidine ethyl ester (H) or lysine ethyl ester (K).

[3] = test system: Salmonella enterica (Gram-negative); test: Microbial kill study, log reduction of Salmonella enterica; assay type: cell-based
Method: as §3, §4, §5, §6, §7, §8, §9, §10, §11, §2, §12

[4] = test system: Pseudomonas aeruginosa (Gram-negative); test: Microbial kill study, log reduction of Pseudomonas aeruginosa; assay type: cell-based
Method: as §3, §4, §5, §6, §7, §8, §9, §10, §11, §1

Salmonella enterica (G-) = test: Stability study at pH 7 over 4 days, log reduction of S. enterica; assay type: cell-based; conditions: pH 7, 100 ppm; for Activity Reduction S. enterica (G-) 100 ppm 5 min: loss of log reduction Day 0 to Day 4
[5] = test system: Staphylococcus aureus (G+); test: Stability study at pH 7 over 4 days, log reduction of S. aureus; assay type: cell-based; conditions: pH 7, 100 ppm; for Activity Reduction S. aureus (G+) 100 ppm 5 min: loss of log reduction Day 0 to Day 4
Method: FIGS. 3A-3B depict a comparison of pH stability between lauryl arginine ethyl ester (LRE) and a cationic amino alcohol surfactant according to an embodiment of the subject invention (LRO) in different conditions of incubation at pH 7 (A) and pH 10 (B). Oven=45° C., 50% relative humidity; ambient=room temperature.
as §3, §4, §5, §6, §7, §8, §9, §10, §11
Tables 10-11 summarize the pH stability over 4 days for a C12 cationic amino alcohol surfactant according to embodiments of the subject invention, LRO (RO), compared with LAE (RE), where LRO was produced through the coupling of a lauroyl chloride substrate and arginine ethyl ester. Log reductions were measured according to the procedures described above in Example 7.

Compound | Surface Tension 1000 ppm ([1]; Table 9) | Log Reduction S. aureus (G+) 200 ppm, 0 min [2] | Log Reduction S. aureus (G+) 200 ppm, 10 min [2] | Log Reduction S. enterica (G-) 200 ppm, 0 min [3] | Log Reduction S. enterica (G-) 200 ppm, 10 min [3] | other results
CCCCCCCCCCCCCC(=O)NC(CO)CCCNC(=N)N (centres unmarked) [C14 R O] | 39.54 mN/m | 0.00 | 6.36 | 0.00 | 6.11 | –
CCCCCCCCCCCC(=O)NC(CO)CCCCN (centres unmarked) [C12 K O] | 27.82 mN/m | 0.00 | 4.60 | 0.00 | 6.16 | Surface Tension 1000 ppm ([1]; Table 8): 27.82 mN/m; Log Reduction 200 ppm, 0 min (Pseudomonas aeruginosa) [4]: 0.54; Log Reduction 200 ppm, 10 min (Pseudomonas aeruginosa) [4]: 6.25
CCCCCCCC(=O)NC(CO)CCCNC(=N)N (centres unmarked) [C8 R O] | 32.15 mN/m | 0.00 | 0.87 | 0.00 | 0.00 | –
linear sophorolipid argininol amide [SLP R O] | 41.89 mN/m | 0.00 | 2.23 | 0.00 | 0.00 | –
CCCCCCCCCCCCCC(=O)NC(CO)Cc1c[nH]cn1 (centres unmarked) [C14 H O] | 22.77 mN/m | 0.00 | 0.00 | 0.00 | 0.00 | –
CCCCCCCC(=O)NC(CO)Cc1c[nH]cn1 (centres unmarked) [C8 H O] | 57.78 mN/m | 0.00 | 0.00 | 0.00 | 0.00 | –
CCCCCCCCCCCC(=O)N[C@@H](CCCNC(=N)N)C(=O)OCC [C12 R E, lauroyl arginine ethyl ester, reference compound] | – | – | – | – | – | Log Reduction S. enterica (G-) 100 ppm, 0 min (Salmonella enterica (G-); Day 0 Stability): 0.00; Log Reduction S. enterica (G-) 100 ppm, 2 min (Salmonella enterica (G-); Day 0 Stability): 6.42; Log Reduction S. enterica (G-) 100 ppm, 5 min (Salmonella enterica (G-); Day 0 Stability): 6.42; Log Reduction S. enterica (G-) 100 ppm, 0 min (Salmonella enterica (G-); Day 4 Accelerated Stability): 0.00; Log Reduction S. enterica (G-) 100 ppm, 2 min (Salmonella enterica (G-); Day 4 Accelerated Stability): 0.00; Log Reduction S. enterica (G-) 100 ppm, 5 min (Salmonella enterica (G-); Day 4 Accelerated Stability): 0.00; Activity Reduction S. enterica (G-) 100 ppm 5 min (Salmonella enterica (G-)): 100.00%; Log Reduction S. aureus (G+) 100 ppm, 0 min ([5]; Day 0 Stability): 0.00; Log Reduction S. aureus (G+) 100 ppm, 2 min ([5]; Day 0 Stability): 6.53; Log Reduction S. aureus (G+) 100 ppm, 5 min ([5]; Day 0 Stability): 6.53; Log Reduction S. aureus (G+) 100 ppm, 0 min ([5]; Day 4 Accelerated Stability): 0.00; Log Reduction S. aureus (G+) 100 ppm, 2 min ([5]; Day 4 Accelerated Stability): 0.93; Log Reduction S. aureus (G+) 100 ppm, 5 min ([5]; Day 4 Accelerated Stability): 1.14; Activity Reduction S. aureus (G+) 100 ppm 5 min [5]: 82.54%
CCCCCCCCCCCC(=O)NC(CO)CCCNC(=N)N (centres unmarked) [C12 R O, lauryl argininol alcohol] | 23.75 mN/m | 0.00 | 6.24 | 0.00 | 6.20 | Surface Tension 1000 ppm ([1]; Table 8): 23.75 mN/m; Log Reduction S. enterica (G-) 100 ppm, 0 min (Salmonella enterica (G-); Day 0 Stability): 0.00; Log Reduction S. enterica (G-) 100 ppm, 2 min (Salmonella enterica (G-); Day 0 Stability): 1.32; Log Reduction S. enterica (G-) 100 ppm, 5 min (Salmonella enterica (G-); Day 0 Stability): 2.36; Log Reduction S. enterica (G-) 100 ppm, 0 min (Salmonella enterica (G-); Day 4 Accelerated Stability): 0.00; Log Reduction S. enterica (G-) 100 ppm, 2 min (Salmonella enterica (G-); Day 4 Accelerated Stability): 0.00; Log Reduction S. enterica (G-) 100 ppm, 5 min (Salmonella enterica (G-); Day 4 Accelerated Stability): 0.79; Activity Reduction S. enterica (G-) 100 ppm 5 min (Salmonella enterica (G-)): 66.53%; Log Reduction 200 ppm, 0 min (Pseudomonas aeruginosa) [4]: 1.85; Log Reduction 200 ppm, 10 min (Pseudomonas aeruginosa) [4]: 6.25; Log Reduction S. aureus (G+) 100 ppm, 0 min ([5]; Day 0 Stability): 0.00; Log Reduction S. aureus (G+) 100 ppm, 2 min ([5]; Day 0 Stability): 2.17; Log Reduction S. aureus (G+) 100 ppm, 5 min ([5]; Day 0 Stability): 6.53; Log Reduction S. aureus (G+) 100 ppm, 0 min ([5]; Day 4 Accelerated Stability): 0.00; Log Reduction S. aureus (G+) 100 ppm, 2 min ([5]; Day 4 Accelerated Stability): 0.76; Log Reduction S. aureus (G+) 100 ppm, 5 min ([5]; Day 4 Accelerated Stability): 6.53; Activity Reduction S. aureus (G+) 100 ppm 5 min [5]: 0.00%
CCCCCCCCCCCCCCCC(=O)NC(CO)CCCNC(=N)N (centres unmarked) [C16 R O] | 37.63 mN/m | 0.00 | 4.10 | 0.00 | 2.86 | –
CCCCCCCCCC(=O)NC(CO)Cc1c[nH]cn1 (centres unmarked) [C10 H O] | 50.30 mN/m | 0.00 | 0.00 | 0.00 | 0.00 | –
CCCCCCCCCC(=O)NC(CO)CCCNC(=N)N (centres unmarked) [C10 R O] | 28.30 mN/m | 0.00 | 6.30 | 0.00 | 6.30 | –
CCCCCCCCCCCC(=O)NC(CO)Cc1c[nH]cn1 (centres unmarked) [C12 H O] | 27.36 mN/m | 0.00 | 0.00 | 0.00 | 0.00 | –
